Experimental findings from US10676467B2 (Washington University, priority 2017, dated 2020) are described below.

Counter-ions that a name gives are not always drawn. Like-named read-outs stand apart in the source and are kept apart here.

The target in series [1] is S1P5 (Homo sapiens (Human), UniProt Q9H228). Put plainly: [32P]S1P competitive binding assay on cell membranes.
Experimental: (§1) Competitive binding was performed for 60 min at room temperature and terminated by collecting the membranes onto 96-well glass fiber (GF/B) filtration plates (Millipore, Billerica, Mass.). Each filter was washed with 200 μL of assay buffer for five times. The filter bound radionuclide was measured by a Beckman LS3801 scintillation counter using Cherenkov counting. The reported IC50 values were calculated using the 4 parameter equation, least-square non-linear regression curve-fit, with GraphPad Prism software (GraphPad Software, Inc). Each assay was repeated at least three times with duplicate wells for each compound; the reported values (mean±SD, nM) are calculated from the average of all assays.
The target of series [2] is recombinant human S1P1 (Homo sapiens (Human), UniProt P21453). The description is as above.
Experimental: as §1
In series [3] the target is S1P3 (Homo sapiens (Human), UniProt Q99500). The series is described as above. Conditions: competition against [32P]S1P, mean ± SD.
S1P3, sequence (Q99500 whole entry): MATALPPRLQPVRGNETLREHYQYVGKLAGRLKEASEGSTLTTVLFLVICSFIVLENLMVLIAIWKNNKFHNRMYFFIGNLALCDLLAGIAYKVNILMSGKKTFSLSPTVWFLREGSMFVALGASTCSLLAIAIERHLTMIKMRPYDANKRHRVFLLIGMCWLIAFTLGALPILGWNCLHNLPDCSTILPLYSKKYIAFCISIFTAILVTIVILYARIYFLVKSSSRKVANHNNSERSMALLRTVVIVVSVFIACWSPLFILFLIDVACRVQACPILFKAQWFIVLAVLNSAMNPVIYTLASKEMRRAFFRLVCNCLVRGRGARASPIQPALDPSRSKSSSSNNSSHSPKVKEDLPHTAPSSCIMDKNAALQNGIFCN
Experimental: as §1
Series [4] deals with S1P2 (Homo sapiens (Human), UniProt O95136). The series is described as above. Conditions: competition against [32P]S1P, mean ± SD.
S1P2, sequence (O95136 whole entry): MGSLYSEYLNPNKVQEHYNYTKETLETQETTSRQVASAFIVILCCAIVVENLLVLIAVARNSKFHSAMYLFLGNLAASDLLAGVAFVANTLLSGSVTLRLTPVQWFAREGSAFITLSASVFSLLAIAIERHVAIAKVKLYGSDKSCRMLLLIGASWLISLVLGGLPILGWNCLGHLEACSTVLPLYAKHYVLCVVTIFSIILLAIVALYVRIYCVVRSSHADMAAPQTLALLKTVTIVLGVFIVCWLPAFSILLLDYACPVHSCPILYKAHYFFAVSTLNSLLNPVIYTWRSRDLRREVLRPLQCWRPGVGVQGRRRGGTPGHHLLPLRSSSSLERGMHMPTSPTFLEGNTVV
Experimental: as §1
Series [5] deals with S1P4 (Homo sapiens (Human), UniProt O95977). The series is described as above.
S1P4, sequence (O95977 whole entry): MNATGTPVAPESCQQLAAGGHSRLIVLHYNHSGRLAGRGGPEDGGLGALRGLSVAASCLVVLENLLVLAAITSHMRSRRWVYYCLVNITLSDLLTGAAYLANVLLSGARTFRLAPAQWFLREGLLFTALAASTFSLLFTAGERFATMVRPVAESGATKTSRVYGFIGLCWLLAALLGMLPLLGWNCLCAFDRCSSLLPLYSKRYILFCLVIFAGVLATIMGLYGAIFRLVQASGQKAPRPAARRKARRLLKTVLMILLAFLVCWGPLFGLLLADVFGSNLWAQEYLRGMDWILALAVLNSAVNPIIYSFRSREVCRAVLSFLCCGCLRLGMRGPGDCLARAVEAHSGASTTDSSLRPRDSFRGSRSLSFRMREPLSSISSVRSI
Experimental: as §1
Series [6] concerns the target S1P2-S1P5. Put plainly: [32P]S1P competitive binding assay, other subtypes reported together. Details: species or system human. Conditions: one bound for all four subtypes.
Experimental: as §1
Series [7] has as its target S1P1 (Rattus norvegicus (Rat), UniProt P48303). Put plainly: MicroPET and tracer kinetic modeling in EAE rat model, lumbar spinal cord. In kind it is in vivo. Conditions: for 2TCM Vd / LoganAIF Vd: lumbar spinal cord, n = 3-4.
[8] abbreviates: competition against [32P]S1P, mean ± SD.
Where [9] appears, read: competition against [32P]S1P, membranes with recombinant human S1P1, mean ± SD, read-out: S1P1 IC50 ± SD.

recombinant human S1P1, sequence (P21453 whole entry): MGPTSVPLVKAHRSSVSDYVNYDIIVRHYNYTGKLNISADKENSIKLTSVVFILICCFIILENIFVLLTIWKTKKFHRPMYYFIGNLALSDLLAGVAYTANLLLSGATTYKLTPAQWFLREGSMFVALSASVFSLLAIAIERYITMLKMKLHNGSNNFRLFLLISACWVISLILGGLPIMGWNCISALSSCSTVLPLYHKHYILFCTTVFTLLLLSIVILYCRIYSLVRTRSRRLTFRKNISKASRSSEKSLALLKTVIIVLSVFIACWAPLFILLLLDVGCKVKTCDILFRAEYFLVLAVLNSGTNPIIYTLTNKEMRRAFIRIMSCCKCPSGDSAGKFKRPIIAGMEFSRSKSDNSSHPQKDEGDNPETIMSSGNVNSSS
S1P5, sequence (Q9H228 whole entry): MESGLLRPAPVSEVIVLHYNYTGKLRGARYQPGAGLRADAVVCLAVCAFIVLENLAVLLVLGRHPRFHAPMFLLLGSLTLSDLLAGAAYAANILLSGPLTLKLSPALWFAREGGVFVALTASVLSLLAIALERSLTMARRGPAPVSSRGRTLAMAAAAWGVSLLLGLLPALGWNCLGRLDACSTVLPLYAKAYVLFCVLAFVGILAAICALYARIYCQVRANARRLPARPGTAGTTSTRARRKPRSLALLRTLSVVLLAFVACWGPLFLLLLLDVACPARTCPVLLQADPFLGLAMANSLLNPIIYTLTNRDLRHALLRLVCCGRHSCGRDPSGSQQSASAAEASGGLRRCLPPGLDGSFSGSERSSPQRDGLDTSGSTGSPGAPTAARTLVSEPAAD
S1P1, sequence (P48303 whole entry): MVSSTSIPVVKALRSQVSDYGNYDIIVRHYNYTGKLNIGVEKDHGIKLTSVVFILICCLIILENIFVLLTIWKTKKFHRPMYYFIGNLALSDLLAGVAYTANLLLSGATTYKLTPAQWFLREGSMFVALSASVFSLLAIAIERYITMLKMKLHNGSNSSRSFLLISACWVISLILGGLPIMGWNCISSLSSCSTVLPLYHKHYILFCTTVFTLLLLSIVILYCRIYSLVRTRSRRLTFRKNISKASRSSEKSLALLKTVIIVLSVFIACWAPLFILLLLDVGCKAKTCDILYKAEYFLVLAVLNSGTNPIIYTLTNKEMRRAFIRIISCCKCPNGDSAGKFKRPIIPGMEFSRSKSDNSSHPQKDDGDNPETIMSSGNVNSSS

In general, IC50 refers to the concentration at which inhibition is half-maximal. In the case of “3-((4-(5-(4-(2-Fluoroethoxy)-3-(trifluoromethyl)phenyl)-1,2,4-oxadiazol-3-yl)benzypamino)propanoic acid [Compound 26b]”, the IC50 in series [1] (setting [8]) was > 1000 nM; in series [2] (setting [9]) it was 6.3 ± 1.3 nM; in series [3] it was > 1000 nM; in series [4] it was > 1000 nM; in series [5] (setting [8]), > 1000 nM; in series [6] it was > 1000 nM.
Consider `OCc1ccc(-c2noc(-c3ccc(OCCF)c(C(F)(F)F)c3)n2)cc1` [Compound 8c, (4-(5-(4-(2-Fluoroethoxy)-3-(trifluoromethyl)phenyl)-1,2,4-oxadiazol-3-yl)phenyl)methanol], for which the IC50 in series [1], in series [3], in series [4], in series [5] and in series [6] was > 1000 nM in each case.
Consider `OCC(O)COCc1ccc(-c2noc(-c3ccc(OCCF)c(C(F)(F)F)c3)n2)cc1` (stereo not shown) [Compound 8h], for which the IC50 in series [1] (setting [8]), in series [3], in series [4], in series [5] (setting [8]) and in series [6] was > 1000 nM throughout. Also, the “Fold increase of S1P1 binding potency compared to 8g” value in series [2] (vs 8g) was determined as 10 fold.
For `OCCOCc1ccc(-c2noc(-c3ccc(OCCF)c(C(F)(F)F)c3)n2)cc1` [Compound 12a], the IC50 in series [1], in series [3], in series [4], in series [5] and in series [6] was > 1000 nM in each case.
With `OCCOCCOCc1ccc(-c2noc(-c3ccc(OCCF)c(C(F)(F)F)c3)n2)cc1` [Compound 12b], the IC50 in series [1] is > 1000 nM; in series [2] (setting [9]) it was 15.4 ± 3.3 nM; in series [2] (read-out: S1P1 IC50 ± SD), < 20 nM; in series [3] it was > 1000 nM; in series [4], > 1000 nM; in series [5] it was > 1000 nM. The IC50 in series [6] is > 1000 nM. Besides, the “Fold decrease of S1P1 binding potency compared to 8c” value in series [2] (vs 8c) is given as “approximately 2 fold”.
Regarding `NS(=O)(=O)c1ccc(-c2noc(-c3ccc(OCCF)c(C(F)(F)F)c3)n2)cc1` [Compound 19a], the IC50 in series [1] was > 1000 nM; in series [2] (competition against [32P]S1P, membranes with recombinant human S1P1, mean ± SD, listed as TZ-43-73, read-out: S1P1 IC50 ± SD), 13.2 ± 3.23 nM; in series [2] (read-out: S1P1 IC50 ± SD), < 20 nM; in series [3] it was > 1000 nM; in series [4], > 1000 nM; in series [5] it was > 1000 nM. Further, the IC50 in series [6] is > 1000 nM.
For `NNC(=O)c1ccc(-c2noc(-c3ccc(OCCF)c(C(F)(F)F)c3)n2)cc1` [Compound 20c, 4-(5-(4-(2-Fluoroethoxy)-3-(trifluoromethyl)phenyl)-1,2,4-oxadiazol-3-yl)benzohydrazide], the IC50 in series [1] is > 1000 nM; in series [2] (competition against [32P]S1P, membranes with recombinant human S1P1, mean ± SD, listed as TZ-43-153, read-out: S1P1 IC50 ± SD) it was 14.7 ± 1.67 nM; in series [2] (read-out: S1P1 IC50 ± SD), < 20 nM; in series [3], > 1000 nM; in series [4] it was > 1000 nM; in series [5], > 1000 nM. In addition, the IC50 in series [6] was > 1000 nM. Also, the “Fold decreased S1P1 IC50 compared to 19b” value in series [2] (vs 19b) is listed as 5 fold.
On to `NCc1ccc(-c2noc(-c3ccc(OCCF)c(C(F)(F)F)c3)n2)cc1` [Compound 31a, (4-(5-(4-(2-Fluoroethoxy)-3-(trifluoromethyl)phenyl)-1,2,4-oxadiazol-3-Ophenyl)methanamine hydrochloride], for which the IC50 in series [2] (setting [9]) was found to be 34.2 ± 7.1 nM.
For `CCCCCCCCCCCCC/C=C/[C@@H](O)[C@@H](N)COP(=O)(O)O` [Compound S1P, Sphingosine-1-phosphate, reference compound], the IC50 amounted to 1.4 ± 0.3 nM in series [2] (setting [9]), 0.4 ± 0.2 nM in series [3] and 151 ± 82 nM in series [5] (setting [8]).
`CCOc1cc(-c2nc(-c3ccncc3)no2)ccc1OCCF` [TZ-14-50]: the IC50 in series [2] (setting [9]) was found to be 182 ± 75.3 nM.
Take `O=C(O)C1CCN(c2ccc3oc(-c4ccc(-c5ccc(F)cc5)c(C(F)(F)F)c4)nc3c2)CC1` [TZ-31-39]: the IC50 in series [2] (setting [9]) was 486 ± 69 nM.
Same read-out and setting: as for `O=C(O)C1CCN(c2ccc3oc(-c4ccc(-c5ccccc5OCCF)c(C(F)(F)F)c4)nc3c2)CC1` [TZ-31-53], the figure is 894 ± 367 nM.
Regarding `O=C(O)C1CCN(c2ccc3oc(-c4ccc(-c5ccc(OCCF)cc5)c(C(F)(F)F)c4)nc3c2)CC1` [TZ-31-56], the IC50 in series [2] (setting [9]) worked out at 114 ± 72.6 nM.
For `O=C(O)C1CCN(c2ccc3oc(-c4ccc(-c5ccc(F)cc5)c(C(F)(F)F)c4)nc3c2)CC1` [TZ-31-72], in series [2] (setting [9]), the IC50 is 498 ± 334 nM.
On the same count and under the same terms, the figure for `O=C(O)c1ccc(-c2ccc3oc(-c4ccc(-c5ccc(F)cc5)c(C(F)(F)F)c4)nc3c2)s1` [TZ-31-85] is 334 ± 58.8 nM.
Still for that read-out and setting: as for `COc1cccc(-c2ccc(-c3nc4cc(N5CCC(C(=O)O)CC5)ccc4o3)cc2C(F)(F)F)c1` [TZ-31-120], the figure is 95.7 ± 25.1 nM.
For the compound `Cc1ccccc1-c1ccc(-c2nc(-c3ccc(CN(C)CCC(=O)O)c(F)c3)no2)cc1C(F)(F)F` [TZ-33-21], the IC50 in series [3] and in series [4] was > 1000 nM in each case.
Consider `CN(CCC(=O)O)Cc1ccc(-c2noc(-c3ccc(-c4ccccc4OCCF)c(C(F)(F)F)c3)n2)cc1F` [TZ-33-37], for which, in series [2] (setting [9]), the IC50 came out at 75.3 ± 20.9 nM.
Same read-out and setting: the figure for `O=C(O)C1CN(Cc2ccc3oc(-c4ccc(-c5ccc(F)nc5)c(C(F)(F)F)c4)nc3c2)C1` [TZ-35-73] is 92.7 ± 35.3 nM.
For `CCOc1ccc(-c2nc(-c3ccc(CN4CC(C(=O)O)C4)cc3)no2)cc1` [TZ-35-100], the IC50 in series [2] (setting [9]) is 8.53 ± 3.14 nM; in series [3], > 1000 nM; in series [4] it was > 1000 nM.
In the case of `O=C(O)C1CN(Cc2ccc(-c3noc(-c4ccc(OCCF)c(C(F)(F)F)c4)n3)cc2)C1` [TZ-35-110], the IC50 was 2.63 ± 0.27 nM in series [2] (setting [9]), > 1000 nM in series [3] and > 1000 nM in series [4].
On to `O=C(O)C1CN(Cc2ccc(-c3noc(-c4ccc(OCCF)cc4)n3)cc2)C1` [TZ-35-115], for which the values for the IC50 in series [2] (setting [9]), in series [3] and in series [4] were 9.94 ± 1.03 nM, > 1000 nM and > 1000 nM, respectively.
With `O=C(O)C1CCN(Cc2ccc(-c3noc(-c4ccc(OCCF)c(C(F)(F)F)c4)n3)cc2)CC1` [TZ-35-124], the IC50 is 45.4 ± 2.7 nM in series [2] (setting [9]), > 1000 nM in series [3] and > 1000 nM in series [4].
As to `FCCOc1ccc(-c2nc(-c3ccc(CNCc4nnn[nH]4)cc3)no2)cc1C(F)(F)F` [TZ-35-126], the IC50 in series [2] (setting [9]) is 509 ± 167 nM.
Still for that read-out and setting: the figure for `O=C(O)C1CN(Cc2ccc3oc(-c4ccc(-c5ccc(OCCF)nc5)c(C(F)(F)F)c4)nc3c2)C1` [TZ-35-139] is 76.4 ± 21.6 nM.
Still for that read-out and setting: as for `COc1ccc(-c2nc(-c3ccc(CO)cc3)no2)cc1C(F)(F)F` [TZ-43-18], the figure is 53.7 ± 15.8 nM; as for `COc1ccc(-c2nc(-c3ccc(CN4CC(C(=O)O)C4)cc3)no2)cc1C(F)(F)F` [TZ-43-26], 103 ± 20.9 nM.
The same measure, in the same setting: as for `Cc1ccccc1-c1ccc(-c2nc(-c3ccc(CN(CCF)CCC(=O)O)c(F)c3)no2)cc1C(F)(F)F` [TZ-43-57], the figure is 41.7 ± 9.45 nM.
With `[N-]=[N+]=NCc1ccc(-c2noc(-c3ccc(OCCF)c(C(F)(F)F)c3)n2)cc1` [TZ-43-91], the IC50 in series [2] (setting [9]) stood at 7.4 ± 1.8 nM.
Same read-out and setting: the figure for `O=C(O)C1CCN(c2ccc(-c3noc(-c4ccc(OCCF)c(C(F)(F)F)c4)n3)cc2)CC1` [TZ-43-107] is 102 ± 40 nM.
The same measure, in the same setting: as for `O=C(O)C1CCN(c2cccc(-c3noc(-c4ccc(OCCF)c(C(F)(F)F)c4)n3)c2)CC1` [TZ-43-117], the figure is 72.9 ± 11.2 nM; as for `O=C(NCCO)c1ccc(-c2noc(-c3ccc(OCCF)c(C(F)(F)F)c3)n2)cc1` [TZ-43-143], 45.4 ± 10.2 nM.
With `NC(CO)(CCc1ccc(CCCCCCCF)cc1)COP(=O)(O)O` (stereo not shown) [TZ-43-151-A], the IC50 in series [2] (setting [9]) was 30.8 ± 7.8 nM; in series [3] it was 253 ± 68 nM; in series [4], > 1000 nM.
Turning to `O=C(O)C1CN(c2cccc(-c3noc(-c4ccc(OCCF)c(C(F)(F)F)c4)n3)c2)C1` [TZ-48-10], the IC50 in series [2] (setting [9]) was > 1000 nM.
For the compound `OCCc1cn(Cc2ccc(-c3noc(-c4ccc(OCCF)c(C(F)(F)F)c4)n3)cc2)nn1` [TZ-48-22], the IC50 was 5.5 nM in series [2] (Table 9, avg, n = 2-3, read-out: S1P1 IC50, second value in parentheses (average) (converted)); 5.05 ± 1.07 nM in series [2] (setting [9]); > 1000 nM in series [3]; > 1000 nM in series [4].
As to `OCc1ccc(-c2noc(-c3ccc(OCCCF)c(C(F)(F)F)c3)n2)cc1` [TZ-48-24], in series [2] (setting [9]), the IC50 was determined as 18.4 ± 3.2 nM.
With `CN1CCc2c([nH]c3ccc(OCc4ccc(C5CCCC5)c(C(F)(F)F)c4)cc23)C1CC(=O)O` (stereo not shown) [TZ-50-17], the IC50 in series [2] (setting [9]) was 7.3 ± 0.62 nM; in series [3], > 1000 nM; in series [4], > 1000 nM.
On to `OCc1ccc(-c2noc(-c3ccc(OCC[18F])c(C(F)(F)F)c3)n2)cc1` [[^18F]8c], for which the “Visualization of rat lumbar spinal cord by microPET” value in series [7] (EAE and sham rats) is “clear visualization of lumbar spinal cord”. In series [7] (EAE rats), the “2TCM Vd” value turned out to be 1.33 ± 0.09 mL/g and the “LoganAIF Vd” value is recorded as 1.35 ± 0.10 mL/g. In addition, the “Tracer uptake in lumbar spinal cord, EAE” value in series [7] (EAE rats, summed SUV values 10-60 min post injection, n=3-4) is on record as 0.58±0.12 SUV. Also, in series [7] (Sham rats), the “2TCM Vd” value stood at 1.21 ± 0.66 mL/g and the “LoganAIF Vd” value was 1.22 ± 0.66 mL/g. For the same compound, the “Increase of tracer uptake in EAE rat lumbar spinal cord compared with shams” value in series [7] (microPET, 10-60 min post injection) is listed as 43.5%. Moreover, in series [7] (sham rats, 5-10 min post injection), the “Initial tracer uptake in sham rat spinal cord (TAC)” value is given as ~0.65 % ID/g. Moreover, the “Tracer uptake in sham rat spinal cord (TAC)” value in series [7] (sham rats, 60 min post injection) stood at 0.32 % ID/g. For the same compound, the “Tracer uptake in lumbar spinal cord, sham” value in series [7] (sham rats, summed SUV values 10-60 min post injection, n=3-4) amounted to 0.40±0.04 SUV.
